# In ChEMBL document CHEMBL6103613 (J Med Chem, 2025):
# Active and inactive are the calls of the source. The calls are words filed in the database; no cut-off is given here.
# Legend:
# [1] = system: Staphylococcus aureus; experiment: Antimicrobial activity against Staphylococcus aureus ATCC 25923 assessed as inhibition of visible bacterial growth incubated for 18 hrs by CLSI based analysis; type: functional
# [2] = system: Staphylococcus aureus; experiment: Antimicrobial activity against methicillin-resistant Staphylococcus aureus clinical isolate 2 assessed as inhibition of visible bacterial growth incubated for 18 hrs by CLSI based analysis; type: functional
# [3] = system: Staphylococcus aureus; experiment: Antimicrobial activity against methicillin-resistant Staphylococcus aureus clinical isolate 4 assessed as inhibition of visible bacterial growth incubated for 18 hrs by CLSI based analysis; type: functional
# [4] = system: Bacillus subtilis; experiment: Antimicrobial activity against Bacillus subtilis ATCC 23875 assessed as inhibition of visible bacterial growth incubated for 18 hrs by CLSI based analysis; type: functional
# [5] = system: Enterococcus faecalis; experiment: Antimicrobial activity against Enterococcus faecalis ATCC 19433 assessed as inhibition of visible bacterial growth incubated for 18 hrs by CLSI based analysis; type: functional
# [6] = system: Escherichia coli; experiment: Antimicrobial activity against Escherichia coli assessed as inhibition of visible bacterial growth incubated for 18 hrs by CLSI based analysis; type: functional
# [7] = Hemolytic activity against mouse Red blood cells at 100 microg/ml incubated for 1 hr relative to control; type: toxicity, cell-based, Erythrocyte; settings: at 100 µg/mL, read-out: Activity
# [8] = system: Candida albicans; experiment: Antifungal activity against Candida albicans assessed as reduction in fungal growth incubated for 18 hrs by CLSI based analysis; type: functional
# [9] = system: RAW264.7; experiment: Cytotoxicity against mouse RAW264.7 cells assessed as cell viability at 6.25 to 100 microg/ml incubated for 24 hrs by MTT assay; type: toxicity, cell-based; settings: raw264.7, 24 h
# [10] = system: Staphylococcus aureus; experiment: Antimicrobial activity against Staphylococcus aureus assessed as reduction in bacterial growth at 2 times MIC incubated for 2 hrs by time-killing assay; type: functional; set-up: scale not given: the % may be the effect or the level left
# [11] = system: Staphylococcus aureus; experiment: Inhibition of biofilm formation in Staphylococcus aureus at 1 to 16 times MIC by crystal violet staining based analysis; type: functional
# [12] = system: Staphylococcus aureus; experiment: Antibiofilm activity in Staphylococcus aureus assessed as biofilm eradication at 8 times MIC relative to control; type: functional
# [13] = system: Cell membrane; experiment: Induction of cell membrane depolarization in Staphylococcus aureus assessed as increase in fluorescence intensity at 1 to 8 times MIC by DiOC2 (3) dye based assay; type: subcellular
# [14] = system: Staphylococcus aureus; experiment: Antimicrobial activity against Staphylococcus aureus ATCC 25923 incubated for 1 hr in presence of PG; type: functional
# [15] = system: Cell membrane; experiment: Disruption of cell membrane integrity in Staphylococcus aureus at 4 times of MIC incubated for 30 mins by Propidium iodide staining based analysis; type: subcellular
# [16] = system: Cell membrane; experiment: Disruption of cell membrane integrity in Staphylococcus aureus at 4 times of MIC incubated upto 20 mins by fluorescence microscopic analysis; type: subcellular
# [17] = system: Staphylococcus aureus; experiment: Upregulation of thiol peroxidase expression in Staphylococcus aureus at 12.5 microg/ml incubated for 3 hrs by RNA sequencing analysis; type: functional, organism-based; settings: dose 12.5 µg/ml
# [18] = system: Staphylococcus aureus; experiment: Upregulation of catalase expression in Staphylococcus aureus at 12.5 microg/ml incubated for 3 hrs by RNA sequencing analysis; type: functional, organism-based; settings: dose 12.5 µg/ml
# [19] = system: Staphylococcus aureus; experiment: Upregulation of superoxide dismutase expression in Staphylococcus aureus at 12.5 microg/ml incubated for 3 hrs by RNA sequencing analysis; type: functional; settings: dose 12.5 µg/ml
# [20] = system: Staphylococcus aureus; experiment: Upregulation of ahpF expression in Staphylococcus aureus at 12.5 microg/ml incubated for 3 hrs by RNA sequencing analysis; type: functional; settings: dose 12.5 µg/ml
# [21] = system: Staphylococcus aureus; experiment: Upregulation of ahpC6 expression in Staphylococcus aureus at 12.5 microg/ml incubated for 3 hrs by RNA sequencing analysis; type: functional; settings: dose 12.5 µg/ml
# [22] = system: Staphylococcus aureus; experiment: Upregulation of Mnh1 expression in Staphylococcus aureus at 12.5 microg/ml incubated for 3 hrs by RNA sequencing analysis; type: functional; settings: dose 12.5 µg/ml
# [23] = system: Staphylococcus aureus; experiment: Upregulation of LiaF expression in Staphylococcus aureus at 12.5 microg/ml incubated for 3 hrs by RNA sequencing analysis; type: functional; settings: dose 12.5 µg/ml
# [24] = system: Staphylococcus aureus; experiment: Upregulation of TarF expression in Staphylococcus aureus at 12.5 microg/ml incubated for 3 hrs by RNA sequencing analysis; type: functional; settings: dose 12.5 µg/ml
# [25] = system: Staphylococcus aureus; experiment: Upregulation of dltB expression in Staphylococcus aureus at 12.5 microg/ml incubated for 3 hrs by RNA sequencing analysis; type: functional; settings: dose 12.5 µg/ml
# [26] = system: Staphylococcus aureus; experiment: Upregulation of fmtA expression in Staphylococcus aureus at 12.5 microg/ml incubated for 3 hrs by RNA sequencing analysis; type: functional; settings: dose 12.5 µg/ml
# [27] = system: Staphylococcus aureus; experiment: Antimicrobial activity against Staphylococcus aureus at 100 degreeC incubated for 0.5 hrs; type: functional, organism-based
# [28] = system: Staphylococcus aureus; experiment: Antimicrobial activity against Staphylococcus aureus incubated for 0.5 hrs in presence of NA+; type: functional, organism-based
# [29] = system: Staphylococcus aureus; experiment: Antimicrobial activity against Staphylococcus aureus incubated for 0.5 hrs in presence of K+; type: functional, organism-based
# [30] = system: Staphylococcus aureus; experiment: Antimicrobial activity against Staphylococcus aureus incubated for 0.5 hrs in presence of Mg+; type: functional, organism-based
# [31] = system: Staphylococcus aureus; experiment: Antimicrobial activity against Staphylococcus aureus incubated for 0.5 hrs in presence of Ca2+; type: functional, organism-based
# [32] = Toxicity in mouse assessed as survival rate at 50 mg/kg, ip measured for 7 days; type: organism-based; settings: in vivo, time 7 day
# [33] = Toxicity in mouse assessed as change in behavior at 50 mg/kg, ip measured for 7 days; type: organism-based; settings: in vivo, 168 h, time 7 day
# [34] = Toxicity in mouse assessed as change in food intake at 50 mg/kg, ip measured for 7 days; type: organism-based; settings: in vivo, 168 h, time 7 day
# [35] = Toxicity in mouse assessed as change in water intake at 50 mg/kg, ip measured for 7 days; type: organism-based; settings: in vivo, 168 h, time 7 day
# [36] = Toxicity in mouse assessed as change in bowel movement intake at 50 mg/kg, ip measured for 7 days; type: organism-based; settings: in vivo, 168 h, time 7 day
# [37] = Toxicity in mouse assessed as change in body weight gain at 50 mg/kg, ip measured for 7 days; type: organism-based; settings: in vivo, 168 h, time 7 day
# [38] = Toxicity in mouse assessed as heart damage at 50 mg/kg, ip measured for 7 days by H and E staining based analysis; type: organism-based; settings: in vivo, 168 h, time 7 day
# [39] = Toxicity in mouse assessed as liver damage at 50 mg/kg, ip measured for 7 days by H and E staining based analysis; type: organism-based; settings: in vivo, 168 h, time 7 day
# [40] = Toxicity in mouse assessed as spleen damage at 50 mg/kg, ip measured for 7 days by H and E staining based analysis; type: organism-based; settings: in vivo, 168 h, time 7 day
# [41] = Toxicity in mouse assessed as lung damage at 50 mg/kg, ip measured for 7 days by H and E staining based analysis; type: organism-based; settings: in vivo, 168 h, time 7 day
# [42] = system: Staphylococcus aureus; experiment: Antibacterial activity against methicillin-resistant Staphylococcus aureus infected in kunming mouse pneumonia model assessed as decrease in IL-6 expression in lung at 5 mg/kg, ip measured upto 8 days; type: functional, organism-based; settings: time <= 8.0 day
# [43] = system: Staphylococcus aureus; experiment: Antibacterial activity against methicillin-resistant Staphylococcus aureus infected in kunming mouse pneumonia model assessed as decrease in IL-10 expression in lung at 5 mg/kg, ip measured upto 8 days; type: functional, organism-based; settings: time <= 8.0 day
# [44] = system: Staphylococcus aureus; experiment: Antibacterial activity against methicillin-resistant Staphylococcus aureus infected in kunming mouse pneumonia model assessed as decrease in TNF-alpha expression in lung at 5 mg/kg, ip measured upto 8 days; type: functional, organism-based; settings: time <= 8.0 day
# [45] = system: Staphylococcus aureus; experiment: Antibacterial activity against methicillin-resistant Staphylococcus aureus infected in kunming mouse peritonitis model assessed as reduction in bacterial colonies in lung at 5 mg/kg, ip measured upto 8 days; type: functional, organism-based; settings: time <= 8.0 day
# [46] = system: Staphylococcus aureus; experiment: Antibacterial activity against methicillin-resistant Staphylococcus aureus infected in kunming mouse peritonitis model assessed as reduction in bacterial colonies in kidney at 5 mg/kg, ip measured upto 8 days; type: functional, organism-based; settings: time <= 8.0 day
smiles,measurement,setting,value
CC(C)[C@@H]1NC(=O)[C@@H](C(C)C)NC(=O)[C@H](C(C)C)NC(=O)[C@@H](CCCCN)NC(=O)[C@H](Cc2c(C(c3ccccc3)(c3ccccc3)c3ccccc3)[nH]c3ccccc23)NC(=O)[C@@H](C(C)C)NC(=O)[C@@H]2CSC1N2,MIC,[1],6.25 µg/mL
same,MIC,[2],6.25 µg/mL
same,MIC,[3],6.25 µg/mL
same,MIC,[4],6.25 µg/mL
same,MIC,[5],12.5 µg/mL
same,MIC,[6],3.13 µg/mL
same,"hemolysis at 1 h, 100 microg/ml",[7],< 5%
same,MIC,[8],3.13 µg/mL
same,Activity,[9],Non-toxic
same,Activity,[10],>99%
same,inhibition (INH),[11],~100%
same,Activity,[12],90%
same,Activity,[13],Dose-dependent-effect
same,MIC,[14],> 50 µg/mL
same,Activity,[15],46.7%
same,Activity,[16],Active
same,Activity,[17],Active
same,Activity,[18],Active
same,Activity,[19],Active
same,Activity,[20],Active
same,Activity,[21],Active
same,Activity,[22],Active
same,Activity,[23],Active
same,Activity,[24],Active
same,Activity,[25],Active
same,Activity,[26],Active
same,Activity,[27],Active
same,Activity,[28],Active
same,Activity,[29],Active
same,Activity,[30],Active
same,Activity,[31],Active
same,survival at 168 h,[32],100%
same,Activity,[33],Non-toxic
same,Activity,[34],Non-toxic
same,Activity,[35],Non-toxic
same,Activity,[36],Non-toxic
same,Activity,[37],Non-toxic
same,Activity,[38],Non-toxic
same,Activity,[39],Non-toxic
same,Activity,[40],Non-toxic
same,Activity,[41],Non-toxic
same,Activity,[42],Active
same,Activity,[43],Active
same,Activity,[44],Active
same,Activity,[45],Active
same,Activity,[46],Active
